We go through 31 compounds from patent US10112899B2 (ViiV HEALTHCARE UK LIMITED, priority 2014, dated 2018).

For one assay, the system named is HIV in the HTLV-1 transformed cell line MT-4. Nature of the assay: organism not typed. It is filed as cell-based. The following applies: MT4, 96 h, MT-4 cells; luciferase/cell titer glo readout after 96 hours; 10 point dose response. Background: In ATP-based viability assays light output follows the ATP content of the culture.
The term IC50 denotes the concentration needed to halve the response being measured. As to `COc1cc(C(=O)N2Cc3c(C)c(-c4ccc(C)cc4)c([C@H](OC(C)(C)C)C(=O)O)c(C)c3C2)ccc1C` [Example 222, (S)-2-(tert-butoxy)-2-(2-(3-methoxy-4-methylbenzoyl)-4,7-dimethyl-6-(p-tolyl)isoindolin-5-yl)acetic acid], inhibition was half-maximal at 4 nM (IC50).

As to `Cc1ccc(-c2c(C)c3c(c(C)c2[C@H](OC(C)(C)C)C(=O)O)CN(C(=O)c2ccnn2C)C3)cc1` [Example 223, (S)-2-(tert-butoxy)-2-(4,7-dimethyl-2-(1-methyl-1H-pyrazole-5-carbonyl)-6-(p-tolyl)isoindolin-5-yl)acetic acid], the IC50 is 13 nM.

`Cc1ccc(-c2c(C)c3c(c(C)c2[C@H](OC(C)(C)C)C(=O)O)CN(C(=O)c2ccc(C(C)(C)C)cc2)C3)cc1` [Example 224, (S)-2-(tert-butoxy)-2-(2-(4-(tert-butyl)benzoyl)-4,7-dimethyl-6-(p-tolyl)isoindolin-5-yl)acetic acid] showed an IC50 of 44 nM.

In turn, `Cc1ccc(-c2c(C)c3c(c(C)c2[C@H](OC(C)(C)C)C(=O)O)CN(C(=O)c2cccc(C)c2)C3)cc1` [Example 225, (S)-2-(tert-butoxy)-2-(4,7-dimethyl-2-(3-methylbenzoyl)-6-(p-tolyl)isoindolin-5-yl)acetic acid] had an IC50 of 5 nM.

`Cc1ccc(-c2c(C)c3c(c(C)c2[C@H](OC(C)(C)C)C(=O)O)CN(C(=O)c2cc(F)cc(Cl)c2)C3)cc1` [Example 226, (S)-2-(tert-butoxy)-2-(2-(3-chloro-5-fluorobenzoyl)-4,7-dimethyl-6-(p-tolyl)isoindolin-5-yl)acetic acid] came in with an IC50 of 5 nM.

In the case of `Cc1ccc(-c2c(C)c3c(c(C)c2[C@H](OC(C)(C)C)C(=O)O)CN(C(=O)c2ccc(C(F)(F)F)cc2)C3)cc1` [Example 227, (S)-2-(tert-butoxy)-2-(4,7-dimethyl-6-(p-tolyl)-2-(4-(trifluoromethyl)benzoyl)isoindolin-5-yl)acetic acid], the IC50 turned out to be 14 nM.

`Cc1ccc(-c2c(C)c3c(c(C)c2[C@H](OC(C)(C)C)C(=O)O)CN(C(=O)C2CCC2)C3)cc1` [Example 228, (S)-2-(tert-butoxy)-2-(2-(cyclobutanecarbonyl)-4,7-dimethyl-6-(p-tolyl)isoindolin-5-yl)acetic acid] returned an IC50 of 13 nM.

Regarding `Cc1ccc(-c2c(C)c3c(c(C)c2[C@H](OC(C)(C)C)C(=O)O)CN(C(=O)c2ccccc2)C3)cc1` [Example 229, (S)-2-(2-benzoyl-4,7-dimethyl-6-(p-tolyl)isoindolin-5-yl)-2-(tert-butoxy)acetic acid], the IC50 worked out at 5 nM.

`Cc1ccc(-c2c(C)c3c(c(C)c2[C@H](OC(C)(C)C)C(=O)O)CN(C(=O)c2cccc(C(C)(C)C)c2)C3)cc1` [Example 230, (S)-2-(tert-butoxy)-2-(2-(3-(tert-butyl)benzoyl)-4,7-dimethyl-6-(p-tolyl)isoindolin-5-yl)acetic acid] registered an IC50 of 111 nM.

`Cc1ccc(-c2c(C)c3c(c(C)c2[C@H](OC(C)(C)C)C(=O)O)CN(C(=O)[C@H]2CCOC2)C3)cc1` [Example 231, (S)-2-(tert-butoxy)-2-(4,7-dimethyl-2-((S)-tetrahydrofuran-3-carbonyl)-6-(p-tolyl)isoindolin-5-yl)acetic acid] gave an IC50 of 37 nM.

As for `CCOCCC(=O)N1Cc2c(C)c(-c3ccc(C)cc3)c([C@H](OC(C)(C)C)C(=O)O)c(C)c2C1` [Example 232, (S)-2-(tert-butoxy)-2-(2-(3-ethoxypropanoyl)-4,7-dimethyl-6-(p-tolyl)isoindolin-5-yl)acetic acid], the IC50 is 148 nM.

As for `Cc1ccc(-c2c(C)c3c(c(C)c2[C@H](OC(C)(C)C)C(=O)O)CN(C(=O)Cc2cccc(F)c2)C3)cc1` [Example 233, (S)-2-(tert-butoxy)-2-(2-(2-(3-fluorophenyl)acetyl)-4,7-dimethyl-6-(p-tolyl)isoindolin-5-yl)acetic acid], 12 nM corresponded to half-maximal inhibition (IC50).

The compound `Cc1ccc(-c2c(C)c3c(c(C)c2[C@H](OC(C)(C)C)C(=O)O)CN(C(=O)c2cccc(OC(C)C)c2)C3)cc1` [Example 234, (S)-2-(tert-butoxy)-2-(2-(3-isopropoxybenzoyl)-4,7-dimethyl-6-(p-tolyl)isoindolin-5-yl)acetic acid] gave an IC50 of 26 nM.

Take `COc1cncc(C(=O)N2Cc3c(C)c(-c4ccc(C)cc4)c([C@H](OC(C)(C)C)C(=O)O)c(C)c3C2)c1` [Example 235, (S)-2-(tert-butoxy)-2-(2-(5-methoxynicotinoyl)-4,7-dimethyl-6-(p-tolyl)isoindolin-5-yl)acetic acid]: half-maximal inhibition (IC50) was put at 5 nM.

For `Cc1ccc(-c2c(C)c3c(c(C)c2[C@H](OC(C)(C)C)C(=O)O)CN(C(=O)c2cncc(C)c2)C3)cc1` [Example 236, (S)-2-(tert-butoxy)-2-(4,7-dimethyl-2-(5-methylnicotinoyl)-6-(p-tolyl)isoindolin-5-yl)acetic acid], the IC50 is 5 nM.

For `Cc1ccc(-c2c(C)c3c(c(C)c2[C@H](OC(C)(C)C)C(=O)O)CN(C(=O)c2cn(C)cn2)C3)cc1` [Example 237, (S)-2-(tert-butoxy)-2-(4,7-dimethyl-2-(1-methyl-1H-imidazole-4-carbonyl)-6-(p-tolyl)isoindolin-5-yl)acetic acid], 67 nM corresponded to half-maximal inhibition (IC50).

In the case of `Cc1ccc(-c2c(C)c3c(c(C)c2[C@H](OC(C)(C)C)C(=O)O)CN(C(=O)c2ccn(C)n2)C3)cc1` [Example 240, (S)-2-(tert-butoxy)-2-(4,7-dimethyl-2-(1-methyl-1H-pyrazole-3-carbonyl)-6-(p-tolyl)isoindolin-5-yl)acetic acid], the IC50 is 121 nM.

`Cc1ccc(-c2c(C)c3c(c(C)c2[C@H](OC(C)(C)C)C(=O)O)CN(C(=O)C(C)(C)C(F)(F)F)C3)cc1` [Example 241, (S)-2-(tert-butoxy)-2-(4,7-dimethyl-6-(p-tolyl)-2-(3,3,3-trifluoro-2,2-dimethylpropanoyl)isoindolin-5-yl)acetic acid] returned an IC50 of 25 nM.

The compound `Cc1ccc(-c2c(C)c3c(c(C)c2[C@H](OC(C)(C)C)C(=O)O)CN(C(=O)c2ccccc2C(C)(C)C)C3)cc1` [Example 242, (S)-2-(tert-butoxy)-2-(2-(2-(tert-butyl)benzoyl)-4,7-dimethyl-6-(p-tolyl)isoindolin-5-yl)acetic acid] had an IC50 of 13 nM.

As to `Cc1ccc(-c2c(C)c3c(c(C)c2[C@H](OC(C)(C)C)C(=O)O)CN(C(=O)C2(C)CCCCC2)C3)cc1` [Example 243, (S)-2-(tert-butoxy)-2-(4,7-dimethyl-2-(1-methylcyclohexanecarbonyl)-6-(p-tolyl)isoindolin-5-yl)acetic acid], half-maximal inhibition (IC50) was put at 18 nM.

As for `COC1CCCC(C(=O)N2Cc3c(C)c(-c4ccc(C)cc4)c([C@H](OC(C)(C)C)C(=O)O)c(C)c3C2)C1` (stereo partly drawn) [Example 244, (2S)-2-(tert-butoxy)-2-(2-(3-methoxycyclohexanecarbonyl)-4,7-dimethyl-6-(p-tolyl)isoindolin-5-yl)acetic acid], the IC50 turned out to be 14 nM.

Take `Cc1ccc(-c2c(C)c3c(c(C)c2[C@H](OC(C)(C)C)C(=O)O)CN(C(=O)c2ccc(F)c(C)c2)C3)cc1` [Example 246, (S)-2-(tert-butoxy)-2-(2-(4-fluoro-3-methylbenzoyl)-4,7-dimethyl-6-(p-tolyl)isoindolin-5-yl)acetic acid]: inhibition was half-maximal at 5 nM (IC50).

For `Cc1ccc(-c2c(C)c3c(c(C)c2[C@H](OC(C)(C)C)C(=O)O)CN(C(=O)c2ccc(F)cc2F)C3)cc1` [Example 247, (S)-2-(tert-butoxy)-2-(2-(2,4-difluorobenzol)-4,7-dimethyl-6-(p-tolyl)isoindolin-5-yl)acetic acid], the IC50 was 5 nM.

Regarding `COc1ccc(F)c(C(=O)N2Cc3c(C)c(-c4ccc(C)cc4)c([C@H](OC(C)(C)C)C(=O)O)c(C)c3C2)c1` [Example 248, (S)-2-(tert-butoxy)-2-(2-(2-fluoro-5-methoxybenzoyl)-4,7-dimethyl-6-(p-tolyl)isoindolin-5-yl)acetic acid], it took 5 nM to reach half-maximal inhibition (IC50).

In turn, `COc1ccc(C)c(C(=O)N2Cc3c(C)c(-c4ccc(C)cc4)c([C@H](OC(C)(C)C)C(=O)O)c(C)c3C2)c1` [Example 249, (S)-2-(tert-butoxy)-2-(2-(5-methoxy-2-methylbenzoyl)-4,7-dimethyl-6-(p-tolyl)isoindolin-5-yl)acetic acid] showed an IC50 of 5 nM.

As for `COc1ccc(C)cc1C(=O)N1Cc2c(C)c(-c3ccc(C)cc3)c([C@H](OC(C)(C)C)C(=O)O)c(C)c2C1` [Example 250, (S)-2-(tert-butoxy)-2-(2-(2-methoxy-5-methylbenzoyl)-4,7-dimethyl-6-(p-tolyl)isoindolin-5-yl)acetic acid], the IC50 turned out to be 4 nM.

`COc1cc(C(=O)N2Cc3c(C)c(-c4ccc(C)cc4)c([C@H](OC(C)(C)C)C(=O)O)c(C)c3C2)ccc1F` [Example 251, (S)-2-(tert-butoxy)-2-(2-(4-fluoro-3-methoxybenzoyl)-4,7-dimethyl-6-(p-tolyl)isoindolin-5-yl)acetic acid] gave an IC50 of 3 nM.

The compound `Cc1ccc(-c2c(C)c3c(c(C)c2[C@H](OC(C)(C)C)C(=O)O)CN(C(=O)c2ccc(F)c(Cl)c2)C3)cc1` [Example 252, (S)-2-(tert-butoxy)-2-(2-(3-chloro-4-fluorobenzoyl)-4,7-dimethyl-6-(p-tolyl)isoindolin-5-yl)acetic acid] registered an IC50 of 4 nM.

Still in this assay, the particulars now being: MT-4 cells; luciferase/cell titer glo readout after 96 hours; 10 point dose response.
With `Cc1ccc(-c2c(C)c3c(c(C)c2[C@H](OC(C)(C)C)C(=O)O)CN(C(=O)c2nccn2C)C3)cc1` [Example 238, (S)-2-(tert-butoxy)-2-(4,7-dimethyl-2-(1-methyl-1H-imidazole-2-carbonyl)-6-(p-tolyl)isoindolin-5-yl)acetic acid], the IC50 was 940 nM.

`Cc1ccc(-c2c(C)c3c(c(C)c2[C@H](OC(C)(C)C)C(=O)O)CN(C(=O)c2nccn2C)C3)cc1` [Example 239, (S)-2-(tert-butoxy)-2-(4,7-dimethyl-2-(1-methyl-1H-imidazole-2-carbonyl)-6-(p-tolyl)isoindolin-5-yl)acetic acid] returned an IC50 of 16 nM.

`COC1CCCC(C(=O)N2Cc3c(C)c(-c4ccc(C)cc4)c([C@H](OC(C)(C)C)C(=O)O)c(C)c3C2)C1` (stereo partly drawn) [Example 245, (2S)-2-(tert-butoxy)-2-(2-(3-methoxycyclohexanecarbonyl)-4,7-dimethyl-6-(p-tolyl)isoindolin-5-yl)acetic acid] registered an IC50 of 26 nM.
